Data reported in PMC10916291, “Cocrystals of a coumarin derivative: an efficient approach towards anti-leishmanial cocrystals against MIL-resistant Leishmania tropica” (IUCrJ, 2024).
Like-named read-outs stand apart in the source and are kept apart here.

Assays:
[1] = system: 3T3 (normal mouse fibroblast) cell line; assay: in vitro
Experimental: (§1) In vitro biological activities of CU, coformers and synthesized cocrystals 2–6 were evaluated for their MIL-resistant L. tropica promastigotes and cytotoxicity against […]. Detailed methodologies of the biological assays are provided in the supporting information.
(§2) 2. Cytotoxicity assay Protocol:
(§3) Cy totoxicity o f compounds was evaluated in 96-well flat-bo ttomed micro plates by using the standard MTT (3-[4, 5-dimethylthiazole-2-y l]-2 , 5-d iph eny l-tetrazolium bromide) colorimetric assay. For this purpose, 3T3 (mouse fibroblast) cells were cultured in Dulb ecco’s Modified Eagle Medium, supplemented with 5% of fetal bovine serum (FBS), 100 IU/mL of penicillin and 100 µg / m L of strep tomy cin in 75 cm2 flasks, and kept in 5% CO2 incubator at 37° C.
(§4) Exponentially growing cells were harvested, counted with haemocytometer, and diluted with a particular medium. Cell culture with the concentration of 5x10^4 cells/mL was p rep ared and introduced (100 µL/well) into 96-well plates. After overnight incubation, medium was removed and 200 µL of fresh medium was added with different concentrations of compounds (1-30 µM).
(§5) After 48 hrs. 200 µL MTT (0.5 mg/mL) was added to each well, and incubated further for 4 hrs.
(§6) Subsequently, 100 µL of DMSO was added to each well. The extent of MTT reduction to formazan within cells was calculated by measuring the absorbance at 540 nm, using a micro-plate reader (Spectra Max p lus, Molecular Devices, USA). The cy totoxicity was recorded as a concentration causing 50% growth inhibition (IC50) of 3T3 cells. The percent inhibition was calculated by using the fo llo wing formula:
(§7) % Inhibition = 100-((mean of O.D of test compound – mean of O.D of negative control)/ (mean of O.D. of positive control – mean of O.D of negative control)*100).
(§8) The results (% inhibition) were processed by using Soft- Max Pro software (Molecular Devices, […]

[2] = Thermal analysis (DSC and TGA); assay type: physicochemical; settings: heating rate 10°C min^-1, dry N2
Experimental: DSC and TGA were performed on a LINSEIS STA PT1600 with heating rate of 10°C min^−1. About 20–25 mg of samples were crimped in a ceramic pan and scanned from 30 to 600°C under dry N2 gas purging. The Linseis TA software (version 1.0; Linseis Messgeraete GmbH) was employed for collecting data.

[3] = system: MIL-resistant L. tropica promastigotes; assay: microbe, parasite or virus in culture; assay type: cell-based, Leishmania tropica; settings: for IC50: Leishmania tropica, 72 h, read-out: Anti-leishmanial activity against MIL-resistant L. tropica via MTT assay (IC50 = µM ± SEM)
Experimental: as §1
(§9) Biological activities evaluations
1. MIL-resistant L. tropica assay protocol
Miltefosine (hexadecylphosphocholine) (LEAP Chem), RPMI-1640 culture medium (Gibco), supplemented with 10% (v/v) heat-inactivated fetal bovine serum (FBS) (Gibco), 2 mM L-glutamine, 1% penicillin/ streptomycin (Sigma), DMSO (ALC labscan), and Trypan blue […]
Clinical Isolate and Generation of MIL resistant line:
Clinical isolate (L. tropica promastigote) from the endemic area of Islamabad (Pakistan) was ob tained from a patient. Promastigote cultures were maintained at 26 °C in RPMI medium, containing 15 % FBS and 1 % penicillin–streptomycin mixture. Clinical isolate was characterized by sequencing.
(§10) Generation of Miltefosine-unresponsive strain was carried under high MIL pressure by in vitro passage with stepwise increase in the MIL concentration. At each step, parasites were cultured, and passaged every 3–4 days at an initial concentration of 5x10^5 promastigotes/mL in order to achieve the stable growth, as compared to the wild type isolate. Growth rates were measured for resistant populations and compared with the WT strain. Parasites were counted at an initial concentration of 5 x 10^5 parasites/mL, and growth was measured daily using a Neubauer chamber until the population reached stationary phase. Fu rth ermore, the fluorescence microscopic investigations via DAPI stain were also carried out to supplement the study, and for […]
Promastigote Growth Inhibition Assay
(IC50) of resistant cell proliferation concerning untreated controls, the MTT assay was employed.
The promastigotes in their log phase were used in 96-well plates. 1 × 106 wild-type and resistant […]
promastigotes were dispensed in 96-well plates, and incubated with tested compounds at a range concentration of 200–10 μM (stock concentration 1mg/mL and the working con centrations started from 250 µg/mL) at 27°C for 72 h. After incubation of 72 h, MTT dye (3-(4,5-dimethylthiazol-2-yl)-2,5-diphenyl-2H-tetrazolium bromide) was added and further incubate it for 3–4 h. Amphotericin B, pantamidine and miltefosine were used as th e positive control, untreated promastigotes were used as negative control moreover DMSO control was also added in the study as a stock solution of the compounds that were prepared in DMSO. All the experiments were performed in triplicates. After completion of the experiment the absorbance by Multiskan ascent plate reader at 452 nm and percent inhibition was calculated by the following […]
Cytotoxic concentration (%) = [100- (Absorbance of test)/ (Absorbance of solv ent con trol) ×100]

[4] = in vitro; settings: mouse
Experimental: as §1, §2, §3, §4, §5, §6, §7, §8

[5] = system: MIL-resistant L. tropica promastigotes; assay: Growth of MIL-resistant L. tropica line generated by step-wise selection (trypan blue count); assay type: cell-based, Leishmania tropica; settings: step-wise selection of MIL up to 196 µM, Fig. 9
Experimental: L. tropica MIL-unresponsive/resistant parasites were developed and maintained using a step-wise selection of the drug MIL up to a concentration of 196 µM. No significant differences in growth patterns were observed between WT- and MIL-resistant strains.
Figure 9 MIL-resistant L. tropica line generated by step-wise selection. 1 × 10^6 log-phase promastigotes were incubated in the presence of a range of drug concentrations. The surviving cells were quantified with trypan blue dye. Populations of parasites were grown in increasing concentrations of MIL, showing increased resistance to MIL. Bars of both resistant and WT parasites represent the more or less similar growth patterns.
as §9
1. MIL-resistant L. tropica assay protocol […]
as §10, with “At each step, parasites were cultured, and passaged every 3–4 days at an initial concentration of 5x10^5 promastigotes/mL in order to achieve the stable growth, as compared to the wild type isolate.” left out

O=C(O)c1cc2ccccc2oc1=O [Cocrystal 1a, Coumarin-3-carboxylic acid]
Cytotoxic activity 3T3 cell line (IC50 = µM ± SEM) [1]: Non-cytotoxic
Thermal stability up to (TGA/DSC) [2]: 191.78 °C

Nc1ncccc1Br [Cocrystal 1b, 2-amino-3-bromopyridine]
Cytotoxic activity 3T3 cell line (IC50 = µM ± SEM) [1]: Non-cytotoxic
Thermal stability up to (TGA/DSC) [2]: 67.29 °C

Nc1ccc(C(F)(F)F)cn1 [Cocrystal 1c, 2-amino-5-(trifluoromethyl)-pyridine]
Cytotoxic activity 3T3 cell line (IC50 = µM ± SEM) [1]: Non-cytotoxic
Thermal stability up to (TGA/DSC) [2]: 48.38 °C

Nc1ccc(C(=O)O)cc1 [Cocrystal 1e, p-aminobenzoic acid]
Cytotoxic activity 3T3 cell line (IC50 = µM ± SEM) [1]: Non-cytotoxic

Nc1nc[nH]n1 [Cocrystal 1f, amitrole]
IC50 [3]: 78 ± 0.96 µM
Percent Inhibitions ([3]; Table S1, concentration 46.95 (unit not given)): 44.0%
Percent Inhibitions ([3]; Table S1, concentration 93.88 (unit not given)): 53.1%
Percent Inhibitions ([3]; Table S1, concentration 187 (unit not given)): 63.01%
Cytotoxic activity 3T3 cell line (IC50 = µM ± SEM) ([1]; 3T3 normal mouse fibroblast, MTT, 48 h, 1-30 µM): Non-cytotoxic

C[C@@H]1C[C@@H]([C@H](O)CC2CC(=O)NC(=O)C2)C(=O)[C@@H](C)C1 [cyclohexamide, reference compound]
IC50 at 48 h [4]: 800 ± 140 nM

CCCCCCCCCCCCCCCCOP(=O)([O-])OCC[N+](C)(C)C [miltefosine, hexadecylphosphocholine, reference compound]
IC50 [3]: 169.55 ± 0.078 µM
Inhibitory effect on cell proliferation of MIL-resistant L. tropica [5]: no inhibitory effects
